# How the values were obtained:
# LdecOBP33 [1] = experiment: Saturation fluorescence binding assay of 1-NPN with recombinant LdecOBP33; design: species or system Leptinotarsa decemlineata; settings: 2 µM LdecOBP33, 1-NPN 0-25 µM, 20 mM Tris pH 7.4, 25 °C; one-site saturation binding accounting for ligand depletion; read-out: dissociation constant (Kd)
# Protocol: (§1) N-phenyl-1-naphthylamine (1-NPN) was used as a fluorescent reporter to assess the ligand-binding affinity of LdecOBP33 toward various plant volatiles and pesticides; this was chosen due to its reported success in prior studies. […] Each assay was performed at 25 ± 1 °C in a 96-well flat-bottom black plate with a final volume of 200 µL and 3 replicates. The relative fluorescence intensity was measured with a 337 nm/10 nm excitation filter and a 413 nm/10 nm emission filter, using a multi-mode Tecan Spark® plate reader. […] The equation Ki=IC50/(1+NPN/KdNPN) was used to calculate the Ki values of the competitor ligands.
# LdecOBP33 [2] = experiment: Competitive fluorescence displacement binding assay (1-NPN reporter); design: species or system Leptinotarsa decemlineata; settings: for IC50 / displacement of the 1-NPN probe: 2 µM LdecOBP33, 2 µM 1-NPN; for IC50: competitor 0-450 µM, 20 mM Tris pH 7.4, 25 °C, mean ± SE (n = 3); for displacement of the 1-NPN probe: competitor up to 450 µM; for Ki: calculated from IC50 with Cheng and Prusoff equation, Ki=IC50/(1+NPN/KdNPN)
# Protocol: as §1
# [3] = ref PubChem database (accessed on 31 October 2025); cited from earlier work
# CPB [4] = experiment: Baseline mortality exposure to imidacloprid in adults, resistant vs susceptible strains; assay type: in vivo, Leptinotarsa decemlineata
# Excerpt: Two different populations of CPBs were used for this study. The susceptible CPB population was purchased from French Agricultural Research (Lamberton, MN, USA). This population was initially collected in 2003 from Long Island, NY; following this, it was reared in laboratory conditions with no pesticide exposure. Neonicotinoid-resistant CPBs were collected from the University of Maine Aroostook Research Farm (Presque Isle, ME, USA). Baseline mortality exposure to imidacloprid in adults indicated a ~30-fold resistance ratio between the resistant and susceptible strains. Both CPB populations were reared in a Penn State facility greenhouse at 25 ± 1 °C under a 16:8 L/D photoperiod. Beetles were fed a constant supply of Red Norland potato plants and housed in insect and butterfly habitat cages (Restcloud, Guangzhou, China). Eggs were collected from plants and stored in Petri dishes maintained at 25 ± 1 °C and 60 ± 5% humidity under a 16:8 L/D photoperiod, located within a rearing room. Newly emerged first-instar larvae fed upon fresh potato plant leaflets up to the third instar and were then transferred back to the greenhouse.
# CPB [5] = experiment: Whole-antenna contact bioassay with imidacloprid; assay type: in vivo, Leptinotarsa decemlineata; settings: for mortality: after 36 h; for mortality / average mortality: 0.5 µL of 0.45 µg/µL per antenna
# Protocol: After feeding with RNAi, the control or LdecOBP33 knockdown male CPBs were placed individually into fresh Petri dishes and anesthetized on ice for 10 min. Afterwards, 0.5 µL of an imidacloprid solution (Sigma Aldrich, St. Louis, MO, USA)—at various concentrations—in acetone was topically applied to each antenna of each CPB using a Hamilton 25 µL model #702 syringe (Hamilton, Reno, NV, USA). Care was taken to ensure that the pesticide solution was applied exclusively to the antennae. […] After treatment, all CPBs were placed in a fresh Petri dish with fresh potato leaves; the dish was kept in a rearing room maintained at 25 ± 1 °C, 60 ± 5% humidity, and a 16:8 L/D photoperiod. CPB mortality was assessed at 0, 3, 6, and 12 h, and every 12 h thereafter, for a total of five days post-treatment. The determination of recovery for individual CPBs after pesticide treatment was adapted from prior studies using three criteria. […] Second, beetles were placed prone and given two minutes to flip upright; those unable to do so were classified as dead. Finally, beetles were placed upside down on the handle of a paintbrush to assess their mobility; individuals that could not walk their full body length or fell off were considered dead. Six biological replicates were conducted, each consisting of 8–10 beetles.
Structure (SMILES),IC50 (LdecOBP33 [2]) [µM],displacement of the 1-NPN probe (LdecOBP33 [2]),Ki (LdecOBP33 [2]) [µM],LogP [3],also measured
"c1ccc(Nc2cccc3ccccc23)cc1 [1-NPN, N-phenyl-1-naphthylamine]",–,–,–,–,Kd (LdecOBP33 [1]): 4.53 ± 0.31 µM
CCC/C=C/C=O [(E)-2-Hexenal],401 ± 16.3,over 50%,301,1.50,–
CC/C=C/CCO [(E)-3-Hexen-1-ol],> 450,No noticeable displacement,> 338,1.30,–
CC/C=C\CCOC(=O)CCC [(Z)-3-Hexenyl-butyrate],24 ± 2.05,over 50%,18,–,–
CNC(=O)Oc1cccc2ccccc12 [Carbaryl],> 450,No noticeable displacement,> 338,–,–
COP(=S)(OC)Oc1nc(Cl)c(Cl)cc1Cl [Chlorpyrifos-methyl],63.7 ± 3.32,over 50%,47.8,4.30,–
CCOP(=S)(OCC)Oc1nc(Cl)c(Cl)cc1Cl [Chlorpyrifos],45.8 ± 3.53,over 50%,34.4,4.96,–
CN/C(=N\[N+](=O)[O-])NCc1cnc(Cl)s1 [Clothianidin],94.5 ± 4.24,over 50%,71,0.70,–
OC[C@H]1OC(O)[C@H](O)[C@@H](O)[C@@H]1O (stereo partly drawn) [D-Glucose],> 450,No noticeable displacement,> 338,–,–
O=[N+]([O-])NC1=NCCN1Cc1ccc(Cl)nc1 [Imidacloprid],263 ± 15.2,over 50%,197,0.57,"resistance ratio between the resistant and susceptible strains (CPB [4]): ~ 30 fold; increase of mortality, dsLdecOBP33-treated vs control (CPB [5]; by 120 h): 19%; mortality (CPB [5]; control (dsGFP) resistant males): 55%; average mortality (CPB [5]; control (dsGFP) resistant males, by 120 h): 12%; mortality (CPB [5]; dsLdecOBP33-KD resistant males): 81%; average mortality (CPB [5]; dsLdecOBP33-treated resistant males, by 120 h): 32%; LD50 (CPB [5]; preliminary tests, 0.5 µL application in acetone to each antenna): 0.45 µg/µL"
C=C[C@](C)(O)CCC=C(C)C [L-Linalool],48.3 ± 1.77,over 50%,36.2,–,–
COC(=O)c1ccccc1O [Methyl salicylate],396 ± 20,over 50%,298,2.50,–
CCCCCCCCC=O [Nonanal],7.29 ± 0.53,over 50%,–,3.30,–
CC(C)=CC1C(C(=O)OCN2C(=O)C3=C(CCCC3)C2=O)C1(C)C (stereo not shown) [Tetramethrin],29.1 ± 1.78,over 50%,21.8,4.70,–

# Reference: article PMC12733967, “Pleiotropic Function of Antenna-Specific Odorant-Binding Protein Links Xenobiotic Adaptation and Olfaction in Leptinotarsa decemlineata” (Insects, 2025)
